These results are taken from patent US6794406B2, “Indole derivatives” (Bayer Aktiengesellschaft, priority 2000, dated 2004).

Molecules are shown by their SMILES.

The test system of the assay is luciferase gene under the control of a thyroid hormone-regulated promoter (TRE) in HepG2 hepatocarcinoma cell. The assay is described as follows: T3 promoter assay cell test. The following applies: stably transfected human HepG2 cells; luciferase induction; incubated 48 or 72 hours with costimulator retinolic acid; four replicates. In kind it is cell-based. Here is the method:
The efficacy of the compounds according to the invention can be tested, for example, in vitro by the T3 promoter assay cell test described below:
The test is carried out using a stably transfected, human HepG2 hepatocarcinoma cell which expresses a luciferase gene under the control of a thyroid hormone-regulated promoter. The vector used for the transfection carries, ahead of the luciferase gene, a minimal thymidine kinase promoter having a thyroid hormone-responsive element (TRE), which consists of two inverted palindromes of 12 Bp each and an 8 Bp spacer.
For the test, the cell cultures are inoculated into 96 well plates in Eagle's Minimal Essential Medium with the following additives: glutamine, tricine [N-(tris(hydroxymethyl)methyl)glycine], sodium pyruvate, non-essential amino acids (L-Ala, L-Asn, L-Asp, L-Pro, L-Ser, L-Glu, Gly), insulin, selenium and transferrin. The cultures are grown for 48 hours at 37° C. and under a 10% CO2 atmosphere. Serial dilutions of test substance or reference compound (T3, T4) and costimulator retinolic acid are then added to the test cultures and these are incubated as beforehand for a further 48 or 72 hours. Each substance concentration is tested in four replicates. For the determination of the luciferase induced by T3 or other substances, the cells are then lysed by addition of a Triton- and luciferin-containing buffer (from Promega) and immediately measured luminometrically. The EC50 values of each compound are calculated.

As a reminder, the EC50 is the concentration at which the effect is half-maximal. `Cc1cc(NCC(=O)O)cc(C)c1Oc1ccc2[nH]cc(C(C)C)c2c1` [Example 5, N-{4-[(3-Isopropyl-1H-indol-5-yl)oxy]-3,5-dimethylphenyl}glycine] yielded an EC50 of 22 nM. The value for `Cc1cc(NC(=O)CC(=O)O)cc(Cl)c1Oc1ccc2[nH]cc(C(C)C)c2c1` [Example 6, 3-({3-Chloro-4-[(3-isopropyl-1H-indol-5-yl)oxy]-5-methylphenyl}amino)-3-oxo-propionic acid] was 8 nM. Molecule `CC(C)c1c[nH]c2ccc(Oc3c(C(F)(F)F)cc(CC(=O)O)cc3C(F)(F)F)cc12` [Example 11, 4-(3-Isopropyl-1H-indol-5-yloxy)-3,5-bis-trifluoromethylphenylacetic acid] came in with an EC50 of 0.5 nM.

The molecule `CC(C)c1c[nH]c2ccc(Oc3c(C(F)(F)F)cc(CCC(=O)O)cc3C(F)(F)F)cc12` [Example 15, 4-(3-Isopropyl-1H-indol-5-yloxy)-3,5-bis-trifluoromethylphenylpropionic acid] displayed an EC50 of 4 nM. The value for `Cc1cc(OCC(=O)O)cc(C)c1Oc1ccc2[nH]cc(C(C)C)c2c1` [Example 16, {4-[(3-Isopropyl-1H-indol-5-yl)oxy]-3,5-dimethylphenoxy}acetic acid] was 21 nM.
